In patent US9497970B2, “Pesticide compounds” (priority 2013, dated 2016):
Like-named read-outs stand apart in the source and are kept apart here.

How the values were obtained:
Type in all cases: in vivo
[1] = test system: Vetch Aphid (Megoura viciae); test: B.8 Vetch Aphid (Megoura viciae), broad bean leaf disks; conditions: foliar, 120 h
Protocol: B.8 Vetch Aphid (Megoura viciae)
For evaluating control of vetch aphid (Megoura viciae) through contact or systemic means the test unit consisted of 24-well-microtiter plates containing broad bean leaf disks.
The compounds were formulated using a solution containing 75% v/v water and 25% v/v DMSO. Different concentrations of formulated compounds were sprayed onto the leaf disks at 2.5 μl, using a custom built micro atomizer, at two replications.
After application, the leaf disks were air-dried and 5-8 adult aphids placed on the leaf disks inside the microtiter plate wells. The aphids were then allowed to suck on the treated leaf disks and incubated at about 23±1° C. and about 50±5% relative humidity for 5 days. Aphid mortality and fecundity was then visually assessed.

[2] = test system: Mediterranean Fruitfly (Ceratitis capitata); test: B.6 Mediterranean Fruitfly (Ceratitis capitata), microtiter plate insect diet; conditions: 120 h, read-out: mortality (egg and larval)
Method in brief: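 Insect diet with 50-80 C. capitata eggs sprayed with compounds formulated in 75% water/25% DMSO, at different concentrations, two replications. Incubation at about 28±1° C and 80±5% relative humidity for 5 days, then egg and larval mortality assessed visually.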

[3] = test system: Boll Weevil (Anthonomus grandis); test: B.3 Boll Weevil (Anthonomus grandis), microtiter plate insect diet; conditions: 120 h, read-out: mortality (egg and larval)
Method in brief: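 Compounds in 25% DMSO/water sprayed at several concentrations onto insect diet in microtiter wells holding 5–10 A. grandis eggs, two replicates. Plates kept 5 days at about 25±1 °C and 75±5% RH. Egg and larval mortality scored visually.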

[4] = test system: Cowpea Aphid (aphis craccivora); test: B.4 Cowpea Aphid (aphis craccivora), sprayed potted cowpea plants; conditions: after 72 hours, in comparison with untreated controls
Protocol: B.4 Cowpea Aphid (aphis craccivora)
The active compound is dissolved at the desired concentration in a mixture of 1:1 (vol:vol) distilled water:acetone. Surfactant (Kinetic HV) is added at a rate of 0.01% (vol/vol). The test solution is prepared at the day of use.
Potted cowpea plants were colonized with approximately 50-100 aphids of various stages by manually transferring a leaf tissue cut from infested plant 24 hours before application. Plants were sprayed after the pest population has been recorded. Treated plants are maintained on light carts at about 28° C. Percent mortality was assessed after 72 hours.

[5] = test system: Diamond Back Moth (Plutella xylostella); test: B.1 Diamond Back Moth (Plutella xylostella), cabbage leaf dip; conditions: foliar
Method in brief: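 Cabbage leaves dipped in compound in 1:1 water:acetone with 0.01% Kinetic HV surfactant, air-dried, then infested with ten 3rd-instar larvae on moist filter paper. Mortality scored at 72 h after treatment; feeding damage rated on a 0-100% scale.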

[6] = test system: Tobacco Budworm (Heliothis virescens); test: B.7 Tobacco Budworm (Heliothis virescens) I, microtiter plate insect diet; conditions: 120 h, read-out: mortality (egg and larval)
Method in brief: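 96-well plates with insect diet and 15-25 H. virescens eggs; compounds in 75% water/25% DMSO sprayed onto diet at several concentrations, two replicates. Plates held at about 28±1° C. and 80±5% relative humidity for 5 days, then egg and larval mortality scored visually.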

[7] = test system: Southern Armyworm (Spodoptera eridania), 2nd Instar Larvae; test: B.10 Southern Armyworm (Spodoptera eridania), 2nd Instar Larvae, sprayed lima bean plants; conditions: 96 h
Method in brief: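 Lima bean plants at 1st true leaf stage sprayed electrostatically with compound in 50% acetone:50% water plus 0.01% nonionic surfactant, then infested with about 10 to 11 2nd instar larvae. Mortality and reduced feeding assessed 4 days after treatment at about 25° C versus untreated plants.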

[8] = test system: Yellow Fever Mosquito (Aedes aegypti); test: whole plant or invertebrate; conditions: 48 h, freshly hatched larvae in tap water, 2 days, in comparison with untreated controls, read-out: mortality (larval)
Method in brief: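 Freshly hatched A. aegypti larvae, 5–15 per well, were held in 200 μl tap water. Compounds formulated in 75:25 water:DMSO were sprayed at various concentrations, 2.5 μl per well by micro-atomizer, in two replicates.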

[9] = test system: Orchid thrips (dichromothrips corbetti); test: B.12 Orchid thrips (dichromothrips corbetti), floral-immersion technique; conditions: adult thrips on dipped orchid petals, 72 hours after treatment, in comparison with untreated controls
Method in brief: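 Whole orchid flower petals were dipped in compound in 1:1 acetone:water with 0.01% v/v Kinetic HV, dried, and enclosed with about 20 adult thrips. They were held under continuous light at about 28° C. Live thrips were counted and percent mortality recorded at 72 hours.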

[10] = test system: Silverleaf Whitefly (Bemisia argentifoli); test: B.5 Silverleaf Whitefly (Bemisia argentifoli), sprayed cotton plants; conditions: 72 h, whitefly adults on sprayed cotton plants, 3 days after treatment, in comparison with untreated controls
Protocol: B.5 Silverleaf Whitefly (Bemisia argentifoli)
(§1) The active compounds were formulated by a Tecan liquid handler in 100% cyclohexanone as a 10,000 ppm solution supplied in tubes. The 10,000 ppm solution was serially diluted in 100% cyclohexanone to make interim solutions. These served as stock solutions for which final dilutions were made by the Tecan in 50% acetone:50% water (v/v) into 5 or 10 ml glass vials. A nonionic surfactant (Kinetic®) was included in the solution at a volume of 0.01% (v/v). The vials were then inserted into an automated electrostatic sprayer equipped with an atomizing nozzle for application to plants/insects.
Cotton plants at the cotyledon stage (one plant per pot) were sprayed by an automated electrostatic plant sprayer equipped with an atomizing spray nozzle. The plants were dried in the sprayer fume hood and then removed from the sprayer. Each pot was placed into a plastic cup and about 10 to 12 whitefly adults (approximately 3-5 days old) were introduced. The insects were collected using an aspirator and a nontoxic Tygon® tubing connected to a barrier pipette tip. The tip, containing the collected insects, was then gently inserted into the soil containing the treated plant, allowing insects to crawl out of the tip to reach the foliage for feeding. Cups were covered with a reusable screened lid. Test plants were maintained in a growth room at about 25° C. and about 20-40% relative humidity for 3 days, avoiding direct exposure to fluorescent light (24 hour photoperiod) to prevent trapping of heat inside the cup. Mortality was assessed 3 days after treatment, compared to untreated control plants.

[11] = test system: Green Peach Aphid (Myzus persicae); test: B.9 Green Peach Aphid (Myzus persicae), sprayed bell pepper plants; conditions: 120 h, infested bell pepper plants sprayed, after 5 days, in comparison with untreated controls
Protocol: B.9 Green Peach Aphid (Myzus persicae)
as §1, with “in 100% cyclohexa none as a” for “in 100% cyclohexanone as a”
Bell pepper plants at the first true-leaf stage were infested prior to treatment by placing heavily infested leaves from the main colony on top of the treatment plants. Aphids were allowed to transfer overnight to accomplish an infestation of 30-50 aphids per plant and the host leaves were removed. The infested plants were then sprayed by an automated electrostatic plant sprayer equipped with an atomizing spray nozzle. The plants were dried in the sprayer fume hood, removed, and then maintained in a growth room under fluorescent lighting in a 24-hr photoperiod at about 25° C. and about 20-40% relative humidity. Aphid mortality on the treated plants, relative to mortality on untreated control plants, was determined after 5 days.

[12] = 2500 ppm, adult aphids on sprayed leaf disks, 5 days, in comparison with untreated controls, read-out: mortality
[13] = 800 ppm, sprayed onto insect diet, 5 days, in comparison with untreated controls
[14] = 500 ppm, 3rd instar larvae on dipped cabbage leaves, 72 hours after treatment, in comparison with untreated controls, read-out: mortality
[15] = 300 ppm, larvae on sprayed lima bean plants, 4 days after treatment, in comparison with untreated controls, read-out: mortality

Cc1ccc(-n2cnc3c4ccc(/C=N/NC(=S)Nc5c(C)cccc5C)cc4ccc32)cc1 [C-105, 1-(2,6-dimethylphenyl)-3-[(E)-[3-(p-tolyl)benzo[e]benzimidazol-7-yl]methyleneamino]thiourea]
≥ 75%: mortality at 2500 ppm [1, 12] | mortality at 800 ppm [2, 13] | mortality at 800 ppm [3, 13]

Cc1ccccc1NC(=S)N/N=C/c1ccc2c(c1)CCc1c-2nnn1-c1ccc(OC(F)(F)F)cc1 [C-34, 1-(o-tolyl)-3-[[3-[4-(trifluoromethoxy)phenyl]-5,8-dihydro-4H-benzo[e]benzotriazol-7-ylidene]methylimino] thiourea]
≥ 75%: mortality at 500 ppm [4] | mortality at 800 ppm [2, 13]

CC(OC(=O)Nc1ccc2c(ccc3c2ncn3-c2ccc(OC(F)(F)F)cc2)c1)c1ccc(Cl)cn1 (stereo not shown) [C-56, 1-(5-chloro-2-pyridyl)ethyl N-[3-[4-(trifluoromethoxy)phenyl]benzo[e]benzimidazol-7-yl]carbamate]
≥ 75%: mortality at 500 ppm ([5]; 72 h) | mortality at 2500 ppm [1] | mortality at 800 ppm [2] | mortality at 800 ppm [6] | mortality at 800 ppm [3] | mortality at 300 ppm [7] | mortality at 800 ppm [8]

Cc1ccccc1NC(=S)N(C)/N=C/c1ccc2c(ccc3c2ncn3-c2ccc(OC(F)(F)F)cc2)c1 [C-87, 1-methyl-3-(o-tolyl)-1-[(E)-[3-[4-(trifluoromethoxy)phenyl]benzo[e]benzimidazol-7-yl]methyleneamino]thiourea]
≥ 75%: mortality at 500 ppm [5, 14] | mortality at 500 ppm [4] | mortality at 800 ppm [2, 13] | mortality at 800 ppm [3, 13] | mortality at 800 ppm [8]

Cc1cccc(Cl)c1NC(=S)N/N=C/c1ccc2c(ccc3c2ncn3-c2ccc(C(F)(F)F)cc2)c1 [C-77, 1-(2-chloro-6-methyl-phenyl)-3-[(E)-[3-[4-(trifluoromethyl)phenyl]benzo[e]benzimidazol-7-yl]methyleneamino] thiourea]
≥ 75%: mortality at 500 ppm [9] | mortality at 500 ppm [5, 14] | mortality at 300 ppm [10] | mortality at 800 ppm [11] | mortality at 800 ppm [2, 13] | mortality at 800 ppm [6, 13] | mortality at 800 ppm [3, 13] | mortality at 300 ppm [7, 15] | mortality at 800 ppm [8]

O=[N+]([O-])c1ccccc1NC(=S)N/N=C/c1ccc2c(c1)CCc1c-2nnn1-c1ccc(OC(F)(F)F)cc1 [C-43, 1-(2-nitrophenyl)-3-[[3-[4-(trifluoromethoxy)phenyl]-5,6-dihydro-4H-benzo[e]benzotriazol-7-ylidene]methylimino]thiourea]
≥ 75%: mortality at 800 ppm [11] | mortality at 2500 ppm [1, 12]

Fc1ccc(NC(=S)N/N=C/c2ccc3c(ccc4c3ncn4-c3ccc(OC(F)(F)F)cc3)c2)c(F)c1 [C-5, 1-(2,4-difluorophenyl)-3-[(E)-[3-[4-(trifluoromethoxy)phenyl]benzo[e]benzimidazol-7-yl]methyleneamino] thiourea]
≥ 75%: mortality at 500 ppm [5, 14] | mortality at 2500 ppm [1, 12] | mortality at 800 ppm [2, 13] | mortality at 800 ppm [6, 13] | mortality at 800 ppm [3, 13]

FC(F)(F)Oc1ccc(-c2onc3c2CCc2cc(/C=N/NC(=S)Nc4cc(C(F)(F)F)ccc4Cl)ccc2-3)cc1 [C-18, 1-[2-chloro-5-(trifluoromethyl)phenyl]-3-[(E)-[3-[4-(trifluoromethoxy)phenyl]-4,5-dihydrobenzo[g][2,1]benzoxazol-7-yl]methyleneamino]thiourea]
≥ 75%: mortality at 2500 ppm [1, 12]

Cc1cccc(C)c1NC(=S)N/N=C/c1ccc2c(ccc3c2ncn3-c2ccc(C(F)(F)F)cc2)c1 [C-86, 1-(2,6-dimethylphenyl)-3-[(E)-[3-[4-(trifluoromethyl)phenyl]benzo[e]benzimidazol-7-yl]methyleneamino]thiourea]
≥ 75%: mortality at 500 ppm [9] | mortality at 500 ppm [5, 14] | mortality at 800 ppm [11] | mortality at 2500 ppm [1, 12] | mortality at 800 ppm [2, 13] | mortality at 800 ppm [6, 13] | mortality at 800 ppm [3, 13] | mortality at 300 ppm [7, 15] | mortality at 800 ppm [8]

CC(C)c1ccccc1N1CCSC1=N/N=C/c1ccc2c(ccc3c2ncn3-c2ccc(OC(F)(F)F)cc2)c1 (stereo in doubt) [C-53, (E)-3-(2-isopropylphenyl)-N-[(E)-[3-[4-(trifluoromethoxy)phenyl]benzo[e]benzimidazol-7-yl]methyleneamino] thiazolidin-2-imine]
≥ 75%: mortality at 500 ppm [9] | mortality at 500 ppm [5, 14] | mortality at 300 ppm [10] | mortality at 2500 ppm [1, 12] | mortality at 800 ppm [2, 13] | mortality at 800 ppm [6, 13] | mortality at 800 ppm [3, 13] | mortality at 300 ppm [7, 15] | mortality at 800 ppm [8]

Cc1cccc(C)c1NC(=S)N/N=C/c1ccc2c(ccc3c2ncn3-c2ccc(SC(F)(F)F)cc2)c1 [C-75, 1-(2,6-dimethylphenyl)-3-[(E)-[3-[4-(trifluoromethylsulfanyl)phenyl]benzo[e]benzimidazol-7-yl]methyleneamino] thiourea]
≥ 75%: mortality at 500 ppm [9] | mortality at 500 ppm [5, 14] | mortality at 300 ppm [10] | mortality at 800 ppm [11] | mortality at 800 ppm [2, 13] | mortality at 800 ppm [6, 13] | mortality at 800 ppm [3, 13] | mortality at 300 ppm [7, 15] | mortality at 800 ppm [8]
